The values that follow come from US20210009542A1 (Calico Life Sciences LLC, priority 2018, published 2021).

Molecules are shown by their SMILES. Like-named read-outs stand apart in the source and are kept apart here.

In assay [1] the target is T1, His tagged PTPN2 (TC45) protein (Homo sapiens, UniProt P17706).
T1 construct: made in house
T1 sequence (P17706 with tags, fused parts or gaps isoform P17706-2): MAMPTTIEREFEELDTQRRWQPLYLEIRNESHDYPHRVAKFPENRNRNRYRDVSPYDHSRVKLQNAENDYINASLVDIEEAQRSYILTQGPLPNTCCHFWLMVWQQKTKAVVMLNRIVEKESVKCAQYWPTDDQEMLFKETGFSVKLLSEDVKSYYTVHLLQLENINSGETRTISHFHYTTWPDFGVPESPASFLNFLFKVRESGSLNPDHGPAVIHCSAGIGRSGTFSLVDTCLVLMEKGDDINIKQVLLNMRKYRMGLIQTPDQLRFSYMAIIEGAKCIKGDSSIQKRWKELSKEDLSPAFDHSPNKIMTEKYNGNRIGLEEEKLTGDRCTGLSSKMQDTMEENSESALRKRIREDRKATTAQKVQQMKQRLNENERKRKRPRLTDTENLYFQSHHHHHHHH
Briefly: Mobility shift assay (MSA) for potency of PTPN2 inhibitors. The format is biochemical. The settings on record: read-out: PTPN2 MSA IC50. In short, it runs like this:
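IC50 values were derived from % inhibition of substrate conversion, measured by microfluidic mobility shift (ex 488/em 530) after quenching. The fluorescent phosphotyrosine insulin-receptor peptide ([…]) reacted for 10 min at room temperature with 0.5 nM His-tagged TC45 PTPN2 that had been preincubated 10 min with compound (12 points, 1:3). Buffer was HEPES pH 7.5 with EGTA, EDTA, Tween 20 and DTT.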

Assay [2] concerns B16F10 mouse melanoma cells. Briefly: B16F10 IFNγ-induced cellular growth inhibition assay. The format is cell-based. The settings on record: Mus musculus, B16-F10, 33 μM compound. In short, it runs like this:
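Live-cell imaging of confluence every 6 h over 5 days at 37 °C tracked growth of mouse B16F10 melanoma cells seeded overnight at 500/well. Semi-log compound series (final 100–0.001 μM, 0.1% DMSO) ran in both arms, ±IFNγ at 0.5 ng/mL final; inhibition taken relative to DMSO plus IFNγ when IFNγ-free DMSO wells passed 95% confluence.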

Setting [3] is: +0.5 ng/mL IFNγ, relative to DMSO control, read-out: % B16F10 growth inhibition (+0.5 ng/mL IFNγ) @ 33 μM.
Where [4] appears, read: no IFNγ, read-out: % B16F10 growth inhibition (no IFNγ) @ 33 μM.

By IC50 is commonly meant the concentration at which inhibition is half-maximal. Turning to `CS(=O)(=O)N1CCC(Nc2ccc3cc(O)c(N4CC(=O)NS4(=O)=O)c(F)c3c2)CC1` [Compound 305, 5-(1-fluoro-3-hydroxy-7-{[1-(methanesulfonyl)piperidin-4-yl]amino}naphthalen-2-yl)-1λ^6,2,5-thiadiazolidine-1,1,3-trione], in assay [1], the IC50 is 0.01 to 0.1 µM. Moreover, the inhibition at 33 µM is 60 to 90% in assay [2] (setting [3]) and less than 25% in assay [2] (setting [4]).

For `O=C1CN(c2c(O)cc3ccc(C4=CCN(C(=O)C5CC5)C4)cc3c2F)S(=O)(=O)N1` [Compound 237, 5-{7-[1-(cyclopropanecarbonyl)-2,5-dihydro-1H-pyrrol-3-yl]-1-fluoro-3-hydroxynaphthalen-2-yl}-1λ^6,2,5-thiadiazolidine-1,1,3-trione], the IC50 in assay [1] was in the range of 0.001 to 0.01 µM. Besides, the inhibition at 33 µM is greater than 90% in assay [2] (setting [3]) and less than 25% in assay [2] (setting [4]).

Regarding `C[C@H](O)CCOc1ccc2cc(O)c(N3CC(=O)NS3(=O)=O)c(F)c2c1` [Compound 147, 5-{1-fluoro-3-hydroxy-7-[(3S)-3-hydroxybutoxy]naphthalen-2-yl}-1λ^6,2,5-thiadiazolidine-1,1,3-trione], the IC50 in assay [1] is less than 0.001 µM. Moreover, the results for the inhibition at 33 µM in assay [2] (setting [3]) and in assay [2] (setting [4]) were greater than 90% and less than 25%, respectively.

On to `O=C1CN(c2c(O)cc3ccc(OCCNS(=O)(=O)C4CC4)cc3c2F)S(=O)(=O)N1` [Compound 127, N-(2-{[8-fluoro-6-hydroxy-7-(1,1,4-trioxo-1λ^6,2,5-thiadiazolidin-2-yl)naphthalen-2-yl]oxy}ethyl)cyclopropanesulfonamide], for which, in assay [1], the IC50 was less than 0.001 µM. For the same compound, the results for the inhibition at 33 µM in assay [2] (setting [3]) and in assay [2] (setting [4]) were 60 to 90% and less than 25%, respectively.

With `O=C1CN(c2c(O)cc3ccc(C4=CCOCC4)cc3c2F)S(=O)(=O)N1` [Compound 264, 5-[7-(3,6-dihydro-2H-pyran-4-yl)-1-fluoro-3-hydroxynaphthalen-2-yl]-1λ^6,2,5-thiadiazolidine-1,1,3-trione], in assay [1], the IC50 fell in the range of 0.001 to 0.01 µM. Besides, the figures for the inhibition at 33 µM in assay [2] (setting [3]) and in assay [2] (setting [4]) were 60 to 90% and less than 25%, respectively.

Regarding `CC(C)(C)OCCOc1ccc2cc(O)c(N3CC(=O)NS3(=O)=O)c(F)c2c1` [Compound 217, 5-[7-(2-tert-butoxyethoxy)-1-fluoro-3-hydroxynaphthalen-2-yl]-1λ^6,2,5-thiadiazolidine-1,1,3-trione], the IC50 in assay [1] was in the range of 0.001 to 0.01 µM. The inhibition at 33 µM is 25 to 59% in assay [2] (setting [3]) and less than 25% in assay [2] (setting [4]).

For `O=C1CN(c2c(O)cc3ccc(CCC4CC4)cc3c2F)S(=O)(=O)N1` [Compound 209, 5-[7-(2-cyclopropylethyl)-1-fluoro-3-hydroxynaphthalen-2-yl]-1λ^6,2,5-thiadiazolidine-1,1,3-trione], in assay [1], the IC50 lay within 0.001 to 0.01 µM. Moreover, the inhibition at 33 µM in assay [2] (setting [3]) was 60 to 90%; in assay [2] (setting [4]) it was less than 25%.

For the compound `CCOCCOc1ccc2cc(O)c(N3CC(=O)NS3(=O)=O)c(F)c2c1` [Compound 246, 5-[7-(2-ethoxyethoxy)-1-fluoro-3-hydroxynaphthalen-2-yl]-1λ^6,2,5-thiadiazolidine-1,1,3-trione], in assay [1], the IC50 lay within 0.001 to 0.01 µM. For the same compound, the inhibition at 33 µM in assay [2] (setting [3]) was 60 to 90%; in assay [2] (setting [4]) it was less than 25%.

Consider `O=C1CN(c2c(O)cc3ccc(OCC(=O)N4CCCC4)cc3c2F)S(=O)(=O)N1` [Compound 283, 5-{1-fluoro-3-hydroxy-7-[2-oxo-2-(pyrrolidin-1-yl)ethoxy]naphthalen-2-yl}-1λ^6,2,5-thiadiazolidine-1,1,3-trione], for which, in assay [1], the IC50 fell in the range of 0.001 to 0.01 µM. Moreover, the inhibition at 33 µM in assay [2] (setting [3]) was 25 to 59%; in assay [2] (setting [4]), less than 25%.

Turning to `NCCOc1ccc2cc(O)c(N3CC(=O)NS3(=O)=O)c(F)c2c1` [Compound 309, 5-[7-(2-aminoethoxy)-1-fluoro-3-hydroxynaphthalen-2-yl]-1λ^6,2,5-thiadiazolidine-1,1,3-trione], the IC50 in assay [1] is 0.001 to 0.01 µM. The values for the inhibition at 33 µM in assay [2] (setting [3]) and in assay [2] (setting [4]) were 60 to 90% and less than 25%, respectively.

Turning to `O=C1CN(c2c(O)cc3ccc(OCCC4CC4)cc3c2F)S(=O)(=O)N1` [Compound 211, 5-[7-(2-cyclopropylethoxy)-1-fluoro-3-hydroxynaphthalen-2-yl]-1λ^6,2,5-thiadiazolidine-1,1,3-trione], the IC50 in assay [1] is less than 0.001 µM. Besides, the values for the inhibition at 33 µM in assay [2] (setting [3]) and in assay [2] (setting [4]) were 60 to 90% and less than 25%, respectively.

For the compound `CC(C)C/C=C/c1ccc2cc(O)c(N3CC(=O)NS3(=O)=O)c(F)c2c1` [Compound 240, 5-{1-fluoro-3-hydroxy-7-[(1E)-4-methylpent-1-en-1-yl]naphthalen-2-yl}-1λ^6,2,5-thiadiazolidine-1,1,3-trione], the IC50 in assay [1] was in the range of 0.001 to 0.01 µM. The inhibition at 33 µM in assay [2] (setting [3]) is 25 to 59%; in assay [2] (setting [4]), less than 25%.

As for `COc1ccc2c(Br)c(O)c(N3CC(=O)NS3(=O)=O)c(F)c2c1` [Compound 243, 5-(4-bromo-1-fluoro-3-hydroxy-7-methoxynaphthalen-2-yl)-1λ^6,2,5-thiadiazolidine-1,1,3-trione], in assay [1], the IC50 is 0.01 to 0.1 µM. Also, the inhibition at 33 µM in assay [2] (setting [3]) is 25 to 59%; in assay [2] (setting [4]), less than 25%.

Turning to `O=C1CN(c2c(O)cc3ccc(C4=CCN(CC5CC5)C4)cc3c2F)S(=O)(=O)N1` [Compound 242, 5-{7-[1-(cyclopropylmethyl)-2,5-dihydro-1H-pyrrol-3-yl]-1-fluoro-3-hydroxynaphthalen-2-yl}-1λ^6,2,5-thiadiazolidine-1,1,3-trione], the IC50 in assay [1] fell in the range of 0.001 to 0.01 µM. Moreover, the inhibition at 33 µM in assay [2] (setting [3]) was 60 to 90%; in assay [2] (setting [4]), less than 25%.

`O=C1CN(c2c(O)cc3ccc(NCCc4ccccc4)cc3c2F)S(=O)(=O)N1` [Compound 164, 5-{1-fluoro-3-hydroxy-7-[(2-phenylethyl)amino]naphthalen-2-yl}-1λ^6,2,5-thiadiazolidine-1,1,3-trione]: the IC50 in assay [1] was less than 0.001 µM. Besides, the inhibition at 33 µM is greater than 90% in assay [2] (setting [3]) and less than 25% in assay [2] (setting [4]).

Consider `O=C1CN(c2c(O)cc3ccc(OCC4CCNCC4)cc3c2F)S(=O)(=O)N1` [Compound 114, 5-{1-fluoro-3-hydroxy-7-[(piperidin-4-yl)methoxy]naphthalen-2-yl}-1λ^6,2,5-thiadiazolidine-1,1,3-trione], for which the IC50 in assay [1] lay in the range of 0.001 to 0.01 µM. The figures for the inhibition at 33 µM in assay [2] (setting [3]) and in assay [2] (setting [4]) were 60 to 90% and less than 25%, respectively.

Consider `COCCCOc1ccc2cc(O)c(N3CC(=O)NS3(=O)=O)c(F)c2c1` [Compound 247, 5-[1-fluoro-3-hydroxy-7-(3-methoxypropoxy)naphthalen-2-yl]-1λ^6,2,5-thiadiazolidine-1,1,3-trione], for which the 50% inhibitory concentration (IC50) in assay [1] fell in the range of 0.001 to 0.01 µM. Further, the inhibition at 33 µM was 60 to 90% in assay [2] (setting [3]) and less than 25% in assay [2] (setting [4]).

For `O=C1CN(c2c(O)cc3ccc(OCCN4CCCCC4)cc3c2F)S(=O)(=O)N1` [Compound 112, 5-{1-fluoro-3-hydroxy-7-[2-(piperidin-1-yl)ethoxy]naphthalen-2-yl}-1λ^6,2,5-thiadiazolidine-1,1,3-trione], in assay [1], the IC50 was 0.01 to 0.1 µM. The inhibition at 33 µM in assay [2] (setting [3]) was 25 to 59%; in assay [2] (setting [4]) it was less than 25%.

Regarding `CCOCCCOc1ccc2cc(O)c(N3CC(=O)NS3(=O)=O)c(F)c2c1` [Compound 216, 5-[7-(3-ethoxypropoxy)-1-fluoro-3-hydroxynaphthalen-2-yl]-1λ^6,2,5-thiadiazolidine-1,1,3-trione], the IC50 in assay [1] was 0.001 to 0.01 µM. For the same compound, the inhibition at 33 µM in assay [2] (setting [3]) was 25 to 59%; in assay [2] (setting [4]), less than 25%.

In the case of `CC(C)(CC#N)CCOc1ccc2cc(O)c(N3CC(=O)NS3(=O)=O)c(F)c2c1` [Compound 115, 5-{[8-fluoro-6-hydroxy-7-(1,1,4-trioxo-1λ^6,2,5-thiadiazolidin-2-yl)naphthalen-2-yl]oxy}-3,3-dimethylpentanenitrile], in assay [1], the IC50 is less than 0.001 µM. Further, the inhibition at 33 µM in assay [2] (setting [3]) was 60 to 90%; in assay [2] (setting [4]), less than 25%.

Take `[2H]c1c(O)c(N2C([2H])([2H])C(=O)NS2(=O)=O)c(F)c2cc(OC)ccc12` [Compound 106, 5-[1-fluoro-3-hydroxy-7-methoxy(4-^2H)naphthalen-2-yl](4,4-^2H2)-1λ^6,2,5-thiadiazolidine-1,1,3-trione]: in assay [1], the IC50 is 0.001 to 0.01 µM. In addition, the inhibition at 33 µM was 60 to 90% in assay [2] (setting [3]) and less than 25% in assay [2] (setting [4]).

Consider `O=C1CN(c2c(O)cc3ccc(C4CNC4)cc3c2F)S(=O)(=O)N1` [Compound 226, 5-[7-(azetidin-3-yl)-1-fluoro-3-hydroxynaphthalen-2-yl]-1λ^6,2,5-thiadiazolidine-1,1,3-trione], for which, in assay [1], the IC50 was in the range of 0.001 to 0.01 µM. For the same compound, the inhibition at 33 µM in assay [2] (setting [3]) was 60 to 90%; in assay [2] (setting [4]), less than 25%.
